# Laboratory results published in patent publication US9018248B2, “Fatty acid derivatives of catechins and methods of their use” (Genesis Group Inc., priority 2010, dated 2015).
# Marks after values point to notes of the source that are not given here.
# How the values were obtained:
# [1] = Lipophilicity, octanol-water partition coefficient by shake flask method; assay type: physicochemical; conditions: 22° C., P=log Ax/(A0−Ax)
# Procedure: Lipophilicity of the identified EGCG derivatives was determined as octanol-water partition coefficient (P) by a shake flask method. Briefly, a flask containing a mixture of octanol (100 ml) and deionized water (100 ml) was shaken in a shaking waterbath at room temperature (22° C.) for 24 hours. The content was then allowed to stand for 24 hours for separation into two phases. Test compounds (0.2 μmol) were dissolved in 5 ml of the upper phase (pre-saturated octanol), and the absorbance (A0) was read at 280 nm. A blank with no sample was prepared. Five milliliters of the bottom phase (pre-saturated water) were added afterwards, and the mixtures were vortexed for 1 min and allowed to stand for 24 hours for separation. Absorbance (Ax) of the upper phase in the vials was measured and octanol-water partition coefficient (P) calculated using the following equation: P=log Ax/(A0−Ax), where blank-corrected absorbance was used.
# [2] = Bulk oil system, stripped corn oil, Rancimat; conditions: PF=IPsample/IPcontrol; Rancimat 100° C., 1 μmol in 3 g oil
# Procedure: One milliliter of EGCG and its derivatives dissolved in ethanol (1 μmol/ml) was transferred into a reaction vessel, followed by evaporation of the solvent to dryness under a stream of nitrogen. To each vessel (an empty vessel was used as control) 3 g of stripped corn oil (devoid of endogenous antioxidants) were added. The evaluation was carried out under accelerated oxidation in a Rancimat (Metrohm Model 743, Herisau, Switzerland) conditions at 100° C. with an air flow rate of 20 l/h. Lipid oxidation in the absence and presence of test compounds was monitored by changes in electrical conductivity, arising from the formation of volatile oxidation products. The induction periods (IP, time to reach a sudden increase in oxidation rate) were recorded. […] Antioxidant activity was interpreted as protection factor (PF), which was calculated as follow. PF=IPsample/IPcontrol where, IPsample and IPcontrol represent induction periods for the oil with and without test compounds, respectively. Discussion
# COX-2 = COX-2 protein expression in LPS-stimulated RAW 264.7 macrophages (western blot); assay type: cell-based, murine; conditions: LPS 100 ng/ml, RAW 264.7, western blot
# Procedure: RAW 264.7 cells were cultured in Rosewell Park Memorial Institute (RPMI) 1640 media (without phenol red) supplemented with 10% endotoxin-free, heat-inactivated fetal calf serum, 100 units/ml penicillin, and 100 μg/ml streptomycin. When the cells reached a density of 2-3×10^6 cells/ml, they were activated by incubation in a medium containing E. coli lipopolysaccharide (LPS) (100 ng/ml). Various concentrations of compounds of the disclosure in dimethyl sulphoxide (DMSO) were added together with LPS. Cells were treated with 0.05% DMSO as the vehicle control. The stimulated murine macrophage cell line RAW 264.7 cells were washed with PBS and lysed in an ice-cold RIPA buffer (Tris-HCl, pH 7.2, 25 mM; 0.1% SDS; 1% Triton X-100; 1% sodium deoxycholate; 0.15 M NaCl; 1 mM EDTA) containing 1 mM phenylmethyl sulphonyl fluoride (PMSF), 10 μg/mL aprotinin, 1 mM sodium ortho-vanadate, and 5 μg/mL leupeptin. Protein concentrations were determined using the BCA method (Pierce, Rockford, Ill.). The samples (50 μg of protein) were mixed with 5-fold of sample buffer containing 0.3 M Tris-HCl (pH 6.8), 25% 2-mercaptoethanol, 12% sodium dodecyl sulphate (SDS), 25 mM EDTA, 20% glycerol, and 0.1% bromophenol blue. The mixtures were boiled at 100° C. for 5 min, prerun on a stacking gel, and then resolved by 12% SDS-polyacrylamide minigels at a constant current of 20 mA. For western blot, proteins on the gel were electro-transferred onto a […] immobile polyvinylidene fluoride (PVDF) membrane with a transfer buffer composed of 25 mM Tris-HCl (pH 8.9), 192 mM glycine, and 20% methanol, as described by Pan et al. (2000). Membrane blocking was then carried out at room temperature for 1 h in blocking solution (20 mM Tris-HCl pH 7.4, 125 mM NaCl, 0.2% Tween 20, 1% bovine serum albumin, and 0.1% sodium azide). The membrane was incubated with the primary antibody of iNOS and COX-2 at 4° C. overnight. The membranes were subsequently probed with selected IgG antibody conjugated to horseradish peroxidase (Transduction Laboratories, Lexington, Ky.) and visualized using enhanced chemiluminescence (ECL, Amersham). The densities of the bands were quantitated using a densitometer (AlphaImager 2200 System). All the membranes were stripped and reprobed for β-actin (Sigma Chemical Co., St. Louis, Mo.) as loading control. […] The inhibition of iNOS induction by compounds of the disclosure may be due to down regulation of iNOS gene expression. EGCG and compounds of the disclosure with antioxidant activities may inhibit the ROS/RNS-mediated activation of NF-κB, the transcription factor that promotes gene expression of iNOS. […] The difference in their ability to inhibit production of iNOS and COX-2 may be due to other mechanisms involved in addition to blocking the NF-κB signalling pathway. EGCG and its derivatives may also suppress the cytokine production by breaking down the mRNA and protein of iNOS and COX-2 to varied degrees. (7b) Inhibition Against LPS-Induced NO Production in RAW 264.7 Macrophage The LPS-induced NO production by the macrophages was determined as nitrite concentration in the culture medium according to the Griess reaction. The culture medium of the control and treated cells was collected and centrifuged. An aliquot (100 μL) of the supernatant was mixed with an equal volume of Griess reagent. The absorbance of the mixture at 550 nm was measured with an ELISA plate reader (Dynatech MR-7000; Dynatech Laboratories, Chantilly, Va., USA). […]
"Lipophilicity (partition coefficient, P) [1]",Compound,logP [1],Protection Factor (PF) [2],Inhibition of COX-2 protein expression (COX-2)
,"CCCCCCCCCCCCCCCCCC(=O)Oc1cc(C(=O)OC2Cc3c(O)cc(O)cc3OC2c2cc(OC(=O)CCCCCCCCCCCCCCCCC)c(O)c(OC(=O)CCCCCCCCCCCCCCCCC)c2)cc(OC(=O)CCCCCCCCCCCCCCCCC)c1O (stereo not drawn) [Compound 1a, EGCG stearate]",1.42 ± 0.02,2.38,decreased in the order of 1a>1b>EGCG>1c
,"O=C(O[C@@H]1Cc2c(O)cc(O)cc2O[C@@H]1c1cc(O)c(O)c(O)c1)c1cc(O)c(O)c(O)c1 [EGCG, Epigallocatechin gallate, reference compound]",0.48 ± 0.01,1.40,decreased in the order of 1a>1b>EGCG>1c
1.10 ± 0.06 ^b,CCC=CCC=CCC=CCC=CCC=CCCCC(=O)Oc1cc(C(=O)OC2Cc3c(O)cc(O)cc3OC2c2cc(OC(=O)CCCC=CCC=CCC=CCC=CCC=CCC)c(O)c(OC(=O)CCCC=CCC=CCC=CCC=CCC=CCC)c2)cc(OC(=O)CCCC=CCC=CCC=CCC=CCC=CCC)c1O (stereo not drawn) [Compound 1b],,0.82,decreased in the order of 1a>1b>EGCG>1c
1.03 ± 0.10 ^b,CCC=CCC=CCC=CCC=CCC=CCC=CCCC(=O)Oc1cc(C(=O)OC2Cc3c(O)cc(O)cc3OC2c2cc(OC(=O)CCC=CCC=CCC=CCC=CCC=CCC=CCC)c(O)c(OC(=O)CCC=CCC=CCC=CCC=CCC=CCC=CCC)c2)cc(OC(=O)CCC=CCC=CCC=CCC=CCC=CCC=CCC)c1O (stereo not drawn) [Compound 1c],,0.77,decreased in the order of 1a>1b>EGCG>1c
